In brackets after ≈: the same amount, converted by molar mass. Activity calls are given as the source filed them.

The test system of data set [1] is Staphylococcus aureus. The experiment in a line: Antibacterial activity against methicillin-resistant Staphylococcus aureus ATCC 33592 in peritoneal dialysis fluid administered as bolus dose 2 hrs after infection measured after 24 hrs by broth dilution method. It counts as functional.
Data set [2] relates to Staphylococcus aureus. The experiment in a line: Antibacterial activity against methicillin-susceptible Staphylococcus aureus ATCC 29213 in peritoneal dialysis fluid administered as bolus dose 2 hrs after infection measured after 24 hrs by broth dilution method. It counts as functional.
Data set [3] has as its system Staphylococcus aureus. The experiment in a line: Antibacterial activity against methicillin-susceptible Staphylococcus aureus ATCC 29213 in peritoneal dialysis fluid at 10 ug/mL administered as bolus dose 2 hrs after infection measured after 24 hrs by time-kill study. It counts as functional, organism-based.
In data set [4] the test system is Staphylococcus aureus. The experiment in a line: Antibacterial activity against methicillin-susceptible Staphylococcus aureus ATCC 29213 in peritoneal dialysis fluid at 50 ug/mL administered as bolus dose 2 hrs after infection measured after 24 hrs by time-kill study. It counts as functional, organism-based.
Data set [5] has as its system Staphylococcus aureus. Kind of data set: Antibacterial activity against methicillin-resistant Staphylococcus aureus ATCC 33592 in peritoneal dialysis fluid at 50 ug/mL administered as bolus dose 2 hrs after infection measured after 24 hrs by time-kill study. It counts as functional, organism-based.
Data set [6] concerns Staphylococcus aureus. Kind of data set: Antibacterial activity against methicillin-resistant Staphylococcus aureus ATCC 33592 in peritoneal dialysis fluid at 10 ug/mL administered as bolus dose 2 hrs after infection measured after 24 hrs by time-kill study. It counts as functional, organism-based.
A short description of data set [7]: Protein binding in mouse plasma at 0.1 to 100 ug/mL by equilibrium dialysis. It counts as ADME, cell-free. Conditions: read-out: PB (converted). (In equilibrium dialysis free small molecules cross a membrane that holds back macromolecules.)

`Cc1nnc(SCC2=C(C(=O)O)N3C(=O)[C@@H](NC(=O)Cn4cnnn4)[C@H]3SC2)s1` [CEFAZOLIN]: the MIC is more than 16 µg/mL with Staphylococcus aureus [1] and 0.5 µg/mL (≈ 1.1 µM) with Staphylococcus aureus [2].
For the molecule `CCCCCCCCCCNCCN[C@@]1(C)C[C@H](O[C@H]2[C@H](Oc3c4cc5cc3Oc3ccc(cc3Cl)[C@@H](O)[C@@H](NC(=O)[C@@H](CC(C)C)NC)C(=O)N[C@@H](CC(N)=O)C(=O)N[C@H]5C(=O)N[C@H]3C(=O)N[C@H](C(=O)N[C@H](C(=O)O)c5cc(O)c(CNCP(=O)(O)O)c(O)c5-c5cc3ccc5O)[C@H](O)c3ccc(c(Cl)c3)O4)O[C@H](CO)[C@@H](O)[C@@H]2O)O[C@@H](C)[C@H]1O` [TELAVANCIN], the MIC in the data set on Staphylococcus aureus [1] worked out at 0.125 µg/mL (≈ 0.0712 µM); against Staphylococcus aureus [2], 0.25 µg/mL (≈ 0.142 µM). Further, the result with Staphylococcus aureus [3], in the data set with Staphylococcus aureus [4], in the data set on Staphylococcus aureus [5] and in the data set with Staphylococcus aureus [6] was Active. In data set [7], the fraction unbound is 0.05.

A word on the MIC: it is the smallest concentration in the dilution series that meets the test's criterion for growth inhibition. The low end stands for a more susceptible organism, the high end for a less susceptible organism.
